Data on three compounds can be found in patent US20250275943A1, “COMPOSITION FOR CANCER DIAGNOSIS TARGETING TUMOR AND/OR TUMOR MICROENVIRONMENT AND USE THEREOF” (Korea University Research and Business Foundation, priority 2024, published 2025).

A short description of data set [1]: Mouse tissue staining experiment, fluorescence of extracted organs. The following applies: normal mouse, organs extracted 4 hours after injection; FIG. 9.
Excerpt: (§1) Each graph represents the fluorescence signal of each organ.
In data set [2] the test system is A549 cancer cells, which do not express folate receptors, and H522 cancer cells, which express folate receptors. The experiment in a line: Fluorescent contrast observation of cancer cells with and without folate receptor expression. Format: cell-based. The following applies: A549 (no folate receptors) vs H522 (folate receptors); FIG. 5A, 5B. The source says: Accordingly, it was identified that FMK-2 had no cytotoxicity.

The conditions of data set [3]: mouse, in vivo.
Excerpt: as §1

Like-named read-outs stand apart in the source and are kept apart here.

For `CC1(C)C(/C=C/C2=C(Cl)C(=C/C=C3/N(CCC(=O)O)c4ccc(S(=O)(=O)O)cc4C3(C)C)/CCC2)=[N+](CCC(=O)O)c2ccc(S(=O)(=O)[O-])cc21` [Compound 1, 3-(2-((E)-2-((E)-3-(2-((E)-1-(2-carboxyethyl)-3,3-dimethyl-5-sulfoindolin-2-ylidene)ethylidene)-2-chlorocyclohex-1-en-1-yl)vinyl)-3,3-dimethyl-5-sulfo-3H-indol-1-ium-1-yl)propanoate], the “fluorescence signal of each organ” value in data set [1] is “signals were higher in the liver and kidneys compared to other organs”.

For `CC1(C)C(/C=C/C2=C(Cl)C(=C/C=C3/N(CCC(=O)NC4O[C@@H](CO)[C@H](O)[C@@H](O)[C@H]4O)c4ccc(S(=O)(=O)O)cc4C3(C)C)/CCC2)=[N+](CCC(=O)NC2O[C@H](CO)[C@@H](O)[C@H](O)[C@@H]2O)c2ccc(S(=O)(=O)O)cc21` (stereo partly drawn) [Compound 2, 2-((E)-2-((E)-2-chloro-3-(2-((E)-3,3-dimethyl-1-(3-oxo-3-(((3R,4R,5R,6S)-3,4,5-trihydroxy-6-(hydroxymethyl)tetrahydro-2H-pyran-2-yl)amino)propyl)-5-sulfoindolin-2-ylidene)ethylidene)cyclohex-1-en-1-yl)vinyl)-3,3-dimethyl-1-(3-oxo-3-(((3S,4S,5S,6R)-3,4,5-trihydroxy-6-(hydroxymethyl)tetrahydro-2H-pyran-2-yl)amino)propyl)-5-sulfo-3H-indol-1-ium], the “fluorescence expression in cancer cells depending on folate receptor expression” value in data set [2] is “expressed fluorescence in cancer cells regardless of whether folate receptors were expressed”. The “fluorescence signal of each organ” value in data set [3] was “overall signals were identified in all organs”.

For `CC1(C)C(/C=C/C2=C(SCCOCCOCCNC(=O)CCC(NC(=O)c3ccc(NCc4cnc5nc(N)nc(O)c5n4)cc3)C(=O)O)C(=C/C=C3/N(CCC(=O)O)c4ccc(S(=O)(=O)O)cc4C3(C)C)/CCC2)=[N+](CCC(=O)O)c2ccc(S(=O)(=O)[O-])cc21` (stereo not shown) [Compound 4, 2-((E)-2-((E)-2-((1-(4-(((2-amino-4-oxo-1,4-dihydropteridin-7-yl)methyl)amino)phenyl)-3-carboxy-1,6-dioxo-10,13-dioxa-2,7-diazapentadecan-15-yl)thio)-3-(2-((E)-1-(2-carboxyethyl)-3,3-dimethyl-5-sulfoindolin-2-ylidene)ethylidene)cyclohex-1-en-1-yl)vinyl)-1-(2-carboxyethyl)-3,3-dimethyl-5-sulfo-3H-indol-1-ium], the “fluorescence signal of each organ” value in data set [1] was “signals were identified in the kidneys and small intestine”.
